EP1997826A2, “Synthetic ligands for immunoglobulins and pharmaceutical compositions containing them” (Tecnogen S.p.A., priority 2007, dated 2008)

Columns and labels:
[1] = system: RBL 2H3 cells; experiment: assay for degranulation of the RBL 2H3 cells (release of β-hexose-aminidase induced by anti-DNP IgE and DNP-BSA antigen); type: cell-based, rat; details: for percentage inhibition of the degranulation reaction: added together with the antigen; for concentration able to reduce 50% of the cellular degranulation: RBL 2H3 cells, 0.5 µg/ml IgE, 0.05 µg/ml DNP-BSA; for IC50: read-out: concentration able to reduce 50% of the cellular degranulation
Excerpt: The RBL 2H3 cell line, rat basophils that express the receptor with high affinity for the immunoglobulins of class E (FcεRl), is widely used for investigating allergic reactions, because in this cell line the chemical mediators of inflammation are released as a result of allergen specific-IgE-FcεRI binding.
Release of the enzyme β-hexose-aminidase, which is present together with histamine in the granules of mast cells and basophils, can be used as an index of cellular degranulation (Tanaka et al., 1991, Chem. Pharm. Bull, 39, 2072-2076; McCloskey et al., 1988, Proc. Natl. Acad. Sci., USA, 85, 7260-7264).
The activity of the enzyme β-hexose-aminidase, released by the stimulated RBL 2H3 cells, was determined by the method described by Yamanishi et al., 1995, Jour. Biotech. Biochem., 59 (7), 1272-1275, which envisages measurement of the enzymatic activity by measuring the absorbance of the product p-nitrophenol generated by the synthetic substrate p-nitrophenyl-N-acetyl-β-D-glucosamide. 1x10^5 RBL 2H3 cells, trypsinized from plates at confluence, were resuspended in a volume of 80 µl of the culture medium (MEM + 10% inactivated fetal bovine serum) and distributed in each well of the 96-well plates (Costar). After 24 hours, 20 µl of medium containing anti-2,4-dinitrophenol monoclonal IgEs (DNP, Sigma, Cat. No. D-8406) was added to each well.
The microplates were incubated at 37°C for one hour and then washed three times with 100 µl of HBS buffer solution (10 mM HEPES, 135 mM NaCl, 5 mM KCI, 1 mM CaCl2, 0.5 mM MgCl2, 5.6 mM glucose, 0.1 % BSA, pH 7.4). After the washings, 100 µl of HBS containing the 2,4-dinitrophenol antigen conjugated to BSA (Sigma, Cat. No. A-6661) was added. As a control, 100 µl of HBS containing 1% Triton X-100 was added to some wells to determine the total amount of enzyme contained in the cellular granules.
After further incubation at 37°C for two hours, 30 µl of cellular supernatant or of cellular lysate was transferred to a new microplate, to which 50 µl of sodium citrate buffer at pH 4.5, containing 4 mM p-nitrophenyl-N-acetyl-β-D-glucosaminide (Sigma, Cat. No. N9376), a specific substrate for the enzyme β-hexose-aminidase, had been added beforehand. After incubation for two hours at 37°C, the reaction was stopped by adding 100 µl of glycine solution 0.2 M, pH 10.7. The enzymatic activity was determined by measuring the absorbance at 405 nm with a Microplate Reader Model 3550 EIA (Bio-Rad).
In preliminary experiments the immunoglobulins E and the antigen were added at various concentrations in order to determine the optimum concentrations for induction of the reaction of enzymatic release. The conditions identified experimentally correspond to 0.5 µg/ml of IgE and 0.05 µg/ml of antigen DNP conjugated to BSA.
To verify the capacity of the peptides of formula IB and of comparative peptides for inhibiting the degranulation of the RBL 2H3 cells, the peptides were added in the assay together with the antigen at concentrations between 0.1 and 500 µg/ml.

[2] = system: female mice of the Balb/c strain; type: in vivo, mouse
Protocol: Active cutaneous anaphylaxis on the mouse ear was induced according to the procedure described by Inagaki et al., Japan. J. Pharmacol. 1992, 59:201-208. Female mice of the Balb/c strain were immunized with the ovalbumin antigen in the presence of the adjuvant aluminium hydroxide gel (alum). The immunizations were carried out by intraperitoneal administration of 25 µg of ovalbumin and 1 mg of alum dissolved in 200 µl of PBS. A control group received intraperitoneal injections that only contained 1 mg of alum dissolved in 200 µl of PBS. […] After 30 minutes, the appearance, on the mouse ear, of stained areas in the dermis, with extent and intensity of staining proportional to the quantity of allergen injected, was observed. […] The sample was then stirred and filtered, and finally the amount of dye was determined with a spectrophotometer, taking readings at 620 nm. […] Extraction and quantification of the Evans Blue dye, discharged in the local inflammatory reaction, were carried out as described previously.

[3] = system: immunoglobulins (IgG, IgM, IgA and IgE); experiment: affinity chromatography of raw murine serum on peptide immobilized on CH-Sepharose-4B; type: binding; details: Western Blot, albumin not retained
[4] = Concentration of Peptide 0.1 µg/ml
[5] = Concentration of Peptide 1 µg/ml
[6] = Concentration of Peptide 10 µg/ml
[7] = Concentration of Peptide 50 µg/ml
[8] = Concentration of Peptide 100 µg/ml
[9] = Concentration of Peptide 500 µg/ml

C[C@H](O)[C@@H](NC(=O)[C@H](N)CCCNC(=N)N)C(=O)N[C@H](Cc1ccc(O)cc1)C(=O)NCCCC[C@H](NC(=O)[C@@H](Cc1ccc(O)cc1)NC(=O)[C@H](NC(=O)[C@H](N)CCCNC(=N)N)[C@H](C)O)C(=O)NCCCC[C@H](NC(=O)[C@H](CCCCNC(=O)[C@@H](Cc1ccc(O)cc1)NC(=O)[C@H](NC(=O)[C@H](N)CCCNC(=N)N)[C@H](C)O)NC(=O)[C@@H](Cc1ccc(O)cc1)NC(=O)[C@H](NC(=O)[C@H](N)CCCNC(=N)N)[C@H](C)O)C(=O)NCC(=O)O [Comparative peptide, (H-D-Arg-D-Thr-D-Tyr-)4-L-Lys2-L-Lys-Gly-OH, reference compound]
percentage inhibition of the degranulation reaction [1, 4]: 0%
percentage inhibition of the degranulation reaction [1, 5]: 40%
percentage inhibition of the degranulation reaction [1, 6]: 49%
percentage inhibition of the degranulation reaction [1, 7]: 59%
percentage inhibition of the degranulation reaction [1, 8]: 62%
percentage inhibition of the degranulation reaction [1, 9]: 70%
concentration able to reduce 50% of the cellular degranulation [1]: 10 µg/mL
IC50 [1]: 4.6 µM

(H-L-Cys(p-MeOBzl)-D-Arg-D-Thr-D-Tyr)4-L-Lys2-L-Lys-L-Lys-OH [Peptide IB]
percentage inhibition of the degranulation reaction [1, 4]: 20%
percentage inhibition of the degranulation reaction [1, 5]: 76%
percentage inhibition of the degranulation reaction [1, 6]: 80%
percentage inhibition of the degranulation reaction [1, 7]: 82%
percentage inhibition of the degranulation reaction [1, 8]: 85%
percentage inhibition of the degranulation reaction [1, 9]: 90%
concentration able to reduce 50% of the cellular degranulation [1]: 1 µg/mL
activity greater than the activity of the comparative peptide ([1]; degranulation of RBL 2H3 cells): approx. 15 times
IC50 [1]: ~0.3 µM
Inhibition of skin reaction (%) ([2]; Dose of Peptide 100 mg/kg intraperitoneally, 30 minutes before ovalbumin): 100%
activity greater than the activity of the comparative peptide ([2]; mouse ear active cutaneous anaphylaxis): approx. 15 times
retention of immunoglobulins by the peptide column [3]: able to retain the immunoglobulins (IgG, IgM, IgA and IgE)
